According to patent publication US9499590B2, “Antibodies against and methods for producing vaccines for respiratory syncytial virus” (MEDIMMUNE, LLC, priority 2009, dated 2016):
“And” between values parts separate entries of the source, which are not always exact repeats. Equal entries are not always repeated.

Experiments:
[1] = biological target: MEDI-524 Fab (Homo sapiens, UniProt P01834+P01857); assay: Isothermal titration calorimetry (ITC) of F peptides with MEDI-524 Fab; format: binding; conditions: 18° C., 25 mM His, pH 6.07
Sequence of MEDI-524 Fab (P01857 with tags, fused parts or gaps limits assumed, other chains not shown): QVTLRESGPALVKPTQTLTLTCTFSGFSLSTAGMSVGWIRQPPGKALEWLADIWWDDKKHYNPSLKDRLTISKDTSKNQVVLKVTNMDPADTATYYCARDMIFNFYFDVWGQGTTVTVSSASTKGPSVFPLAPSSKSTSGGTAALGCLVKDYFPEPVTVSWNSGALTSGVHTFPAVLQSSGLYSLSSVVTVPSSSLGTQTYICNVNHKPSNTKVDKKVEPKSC
Excerpt: Isothermal Titration calorimetry assays (ITC) have been described (see, for example, Heerklotz H et al., Biophysical Journal, May 1999). Molecular interactions are defined by stoichiometry and a few thermodynamic parameters. All binding reactions are associated with the absorption or generation of heat. Therefore calorimetry is emerging as a premier tool for the characterisation of interactions of biological macromolecules. ITC is the only method that measures equilibrium constants, enthalpy and entropy in one single experiment. If the experiment is performed at different temperatures the important parameter, the heat capacity change, can be determined. ITC has become a standard method for investigating the binding of ligands to receptor molecules. Accordingly, ligands are mixed with receptors, and the subsequent heats of incorporation (or binding) are measured.
To obtain binding constants for MEDI-524 Mab and MEDI-524 Fab fragments with F peptides constructed from F protein sequences, ITC was performed.
For this set of experiments, […] (1.16 μM-148.4 KDa) of MEDI-524 Mab and 0.088 mg/mL (1.88 μM-46.3 KDa) of MEDI-524 Fab, both in 25 mM His, pH 6.07 were used. On the other hand, 250 μl of lmg/mL of the different peptides dissolved in H2O, were provided by ABC. The peptides were then diluted into the appropriate volume of buffer to give a final concentration of 50 μM. The ITC experiments were run at 18° C. with the macromolecule (Mab or Fab) in the cell, by doing ˜26 injections of 10 μL of peptides, spaced 360 sec with constant stirring. The data fitting was accomplished by subtracting the average value of the few last injections as the buffer and unspecific heat of dilution contributions. […] A note apart is the fact that the observed binding capacity (N) increases with the length of the peptide, indicating possibly an extra conformational factor in the binding event. The entropic contribution: For the peptides SEQ ID NOs.24 and 26, the entropic factor seems to be similar; the extra amino acids at the end of the N-terminal seem not to affect greatly the binding parameters. On the other hand, the elongation at the C-terminal seems to decrease slightly the binding enthalpy, the binding constant, as well as the entropic factor. The binding capacity seems to be increased in the cases where the 30-mer peptides were used (SEQ ID Nos. 25 and 26), when compare to the SEQ ID NO.24 peptide, possibly due to the longer extent of the whole peptides. The binding constant seems to be smaller (weaker) for both 30-mer peptides respect to the 26-mer.

[2] = biological target: Numax™; assay: Biacore kinetic analysis of F peptides on captured Numax™; format: binding; conditions: F peptide 100 nM over captured Numax, HBS-EP
Sequence of Numax™ (as listed by the source, one chain of several): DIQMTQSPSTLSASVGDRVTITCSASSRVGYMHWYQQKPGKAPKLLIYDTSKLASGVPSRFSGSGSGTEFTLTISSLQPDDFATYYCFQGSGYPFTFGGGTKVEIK
Protocol: All studies were performed using Sensor Chip CM5 (Biacore AB, Uppsala, Sweden) which contains a carboxymethyl (CM) dextran matrix and a Biacore®3000 surface plasmon resonance (SPR) biosensor (Biacore AB, Uppsala, Sweden).
Numax™ was captured via a high-affinity interaction between the Fc portion of Numax™ and a goat anti-human IgG(Fc) (KPL, Inc., Gaithersburg, Md.). Goat anti-human IgG(Fc) was covalently attached to the CM dextran matrix using amine coupling chemistry. Two anti-human IgG(Fc)-specific surfaces were created. Numax™ was diluted to 10.9 μg/mL with HBS-EP and flowed for 1 min. across one of the anti-human IgG (Fc) surfaces at a flow rate of 5 μL/min. The other anti-human IgG(Fc) surface was used as a reference surface. F peptide was prepared by dilution in HBS-EP (0.01 M Hepes pH 7.4, 0.15 M NaCl, 3 mM EDTA, 0.005% surfactant P20) to a final concentration of 100 nM. F peptide was injected for 1 min. in a serial-flow manner across the reference surface and the Numax™-specific surface. Dissociation of bound F peptide was monitored for 2 min in the presence of HBS-EP. After this dissociation period, Numax™ and F peptide were removed with a 30-sec injection of 10 mM glycine pH 1.7 (Biacore AB, Uppsala, Sweden). Because of the removal of Numax™, it was necessary to create a new Numax™-specific surface prior to the injection of each F peptide.

[3] = tested on: RSV B9320 strain mutants; assay: Microneutralization assay of RSV B9320 strain F protein mutants; format: cell-based, respiratory syncytial virus
Excerpt: (§1) Hep-2 cells were infected in 24 well plates with RSV (in some cases, the B9320 RSV strain) in the presence of an anti-RSV monoclonal antibody, such as, for instance, Synagis® (palivizumab) and/or Numax™ (motavizumab) or MEDI-524. The virus was passaged two to three more times in the continued presence of the monoclonal antibody. […] The resulting plaques were purified two times in the presence of the monoclonal antibody. The virus was expanded to produce virus stock in either the presence or absence of the monoclonal antibody. Analysis of susceptibility of the viral mutants to neutralization by Synagis® (palivizumab) and Numax™ (motavizumab) was performed by a microneutralization assay and/or IFA. Finally, the sequence of the mutant F protein was determined by standard methods. […] Antibody contact with residues 262, 268 and 272 appear important.

[4] = tested on: RSV monoclonal antibody resistant mutants (MARMs); assay: Microneutralization assay of RSV monoclonal antibody resistant mutants (MARMs); format: cell-based, respiratory syncytial virus
Protocol: Neutralization assays have also been described (see, for example, Beller et al., 1989, J Virol 63: 2941-2950, which is incorporated herein by reference in its entirety). Briefly RSV is incubated in the presence of serial dilutions of the agent(s) to be tested (e.g., F peptide) for an appropriate period of time. The mixtures of virus-agent(s) are then transferred to cell monolayers and incubated for an appropriate period of time. Cells are subsequently examined microscopically for cytopathology. Microscopic observations can be confirmed by staining with a glutaraldehyde-crystal violet solution. Neutralization can be expressed as the reciprocal of the highest agent dilution which inhibited more then 95% of the viral cytopathic effect present in the control sample (RSV and cells alone)
as §1

[5] = biological target: RSV F protein; assay: Biacore kinetic analysis, Numax reference standard; format: binding, respiratory syncytial virus
Excerpt: BIAcore analysis can measure the kinetic interactions of anti-RSV antibodies with RSV F peptides by surface plasmon resonance using a BIAcore 1000, 2000, or 3000 instrument (Biacore, Uppsala, Sweden). Purified recombinant, C-terminally truncated F protein was covalently coupled to a (1-ethyl-3-[3-dimethylaminopropyl]carbodiimide hydrochloride)/N-hydroxysuccinimide-activated CM5 sensor chip at a low protein density (see Johnsson et al. (1991) Anal. Biochem. 198, 268-277). The unreacted active ester groups were blocked with 1 M ethanolamine. For use as a reference, when the BIAcore 2000 or 3000 instrument was used, a blank surface, containing no antigen, was prepared under identical immobilization conditions. To minimize binding variations caused by different lots of F proteins, most of the antibodies were measured against the same lot of F protein. In several cases when different lots of F proteins were used, their binding to an anti-RSV antibody was used as a reference to make sure that these lots had similar binding characteristics to the lot that is used mainly. A serial 2-fold dilution series of purified antibodies, ranging from 0.2 to 100 nm in HBS/Tween 20 buffer (BIAcore), was injected over the F-protein and reference cell surfaces, which were connected in series. In each measurement, the residual antibody was removed from the sensor chip by a brief pulse of 100 mM HCl. The binding curves were globally fitted to a 1:1 Langmuir binding model using the BIAevaluation program. This algorithm calculates both kon and koff. The apparent equilibrium dissociation constant, Kd, was deduced as the ratio of the two rate constants, koff/kon.

[6] = K272N, K272Q or K272I, or double N268L + K272I
[7] = K272E, or double mutation N262Y + K272Q
[8] = MARM 45, K272Q, selection Numax
[9] = MARM 49-B12, K272N, selection Numax
[10] = MARM 63-B6, N268L + K272I, selection Numax
[11] = MARM 63-H2, K272I, selection Numax
[12] = MARM 65-B10, N262Y + K272Q, selection Numax
[13] = MARM 69-C8, K272E, selection Numax
[14] = MARM #10, K272E + N276Y, selection A4b4
[15] = MARM #13, N262K + K272Q, selection Synagis then A4b4
[16] = MARM B1, K272N, selection Synagis
[17] = MARM B2, K272M, selection Synagis
[18] = MARM B7, K272T, selection Synagis
[19] = MARM B9, K272Q, selection Synagis
[20] = MARM NuMARM3, K272E, selection Numax
[21] = all other mutations indicated at position 272

Molecule: STYMLTNSELLSLIHDMPITNDQKKLMSNN [SEQ ID NO: 26]
- Ka (association constant) [1]: 7.1e+06 M⁻¹
- ΔHbinding [1]: -11.4 kcal/mol
- ΔSbinding [1]: −8.1
- Kd [2]: 22.7 nM
- ka [2]: 2.43E+05
- kd [2]: 5.52E−03

Molecule: Synagis ®: humanized RSV monoclonal antibody directed against the F glycoprotein of RSV [reference compound]
- Neutralization of RSV mutant [3, 6]: lost its ability to neutralize RSV
- Neutralization of RSV mutant ([3]; double mutation K272Q + N262K): lost their ability to neutralize
- Neutralization of RSV mutant [4, 7]: longer neutralized RSV
- Neutraliz by antibody? [4, 8]: No
- Neutraliz by antibody? [4, 9]: No
- Neutraliz by antibody? [4, 10]: No
- Neutraliz by antibody? [4, 11]: No
- Neutraliz by antibody? [4, 12]: No
- Neutraliz by antibody? [4, 13]: No
- Neutraliz by antibody? ([4]; MARM #6, K272E, selection A4b4): No
- Neutraliz by antibody? [4, 14]: No
- Neutraliz by antibody? [4, 15]: No
- Neutraliz by antibody? [4, 16]: No
- Neutraliz by antibody? [4, 17]: No
- Neutraliz by antibody? [4, 18]: No
- Neutraliz by antibody? [4, 19]: No
- Neutraliz by antibody? [4, 20]: No
- Neutralization of RSV mutant [4, 21]: eliminate the ability

Molecule: NSELLSLINDMPITNDQKKLMSNN(X-orn)C [SEQ ID NO: 24]
- Ka (association constant) [1]: 1.3e+07 M⁻¹
- ΔHbinding [1]: -12.8 kcal/mol
- ΔSbinding [1]: −11.4
- Kd [2]: 2.29 nM
- ka [2]: 1.06E+05
- kd [2]: 2.42E−04

Molecule: NSELLSLINDMPITNDQKKLMSNNC [SEQ ID NO: 27]
- Kd [2]: 20.4 nM
- ka [2]: 2.70E+05
- kd [2]: 5.50E−03

Molecule: NSELLSLIHDMPITNDQKKLMSNNVQIVRQ [SEQ ID NO: 25]
- Ka (association constant) [1]: 6.5e+06 M⁻¹
- ΔHbinding [1]: -10.4 kcal/mol
- ΔSbinding [1]: −4.7
- Kd [2]: 7.23 nM and 5.44 nM
- ka [2]: 2.50E+05 and 3.62E+05
- kd [2]: 1.81E−03 and 1.97E−03

B1: Numax ™: enhanced potency RSV-specific monoclonal antibody derived by in vitro affinity maturation of palivizumab (antibody, listed as Chimaera sp., V domains shown)
VH: QVTLRESGPALVKPTQTLTLTCTFSGFSLSTAGMSVGWIRQPPGKALEWLADIWWDDKKHYNPSLKDRLTISKDTSKNQVVLKVTNMDPADTATYYCARDMIFNFYFDVWGQGTTVTVSS
VL: DIQMTQSPSTLSASVGDRVTITCSASSRVGYMHWYQQKPGKAPKLLIYDTFFLDSGVPSRFSGSGSGTEFTLTISSLQPDDFATYYCFQGSGYPFTFGGGTKVEIK
modifications: (1)..(120) Humanized VH domain antibody sequence; (1)..(106) Humanized VL domain antibody sequence
- Kd [5]: 0.004 nM
- ka [5]: 4.70E+05
- kd [5]: 1.88E−06
- Neutralization of RSV mutant [3, 6]: retain its ability to neutralize RSV at higher concentration
- Neutralization of RSV mutant ([3]; double mutation K272Q + N262K): lost their ability to neutralize
- Neutralization of RSV mutant ([3]; single mutant K272Q): did not knock out
- Neutralization of RSV mutant [4, 7]: longer neutralized RSV
- Neutraliz by antibody? [4, 8]: Yes at higher
- Neutraliz by antibody? [4, 9]: Yes at higher
- Neutraliz by antibody? [4, 10]: Yes at higher
- Neutraliz by antibody? [4, 11]: Yes at higher
- Neutraliz by antibody? [4, 12]: No
- Neutraliz by antibody? [4, 13]: No
- Neutraliz by antibody? ([4]; MARM #6, K272E, selection A4b4): No
- Neutraliz by antibody? [4, 14]: No
- Neutraliz by antibody? [4, 15]: No
- Neutraliz by antibody? [4, 16]: Yes
- Neutraliz by antibody? [4, 17]: Yes
- Neutraliz by antibody? [4, 18]: Yes
- Neutraliz by antibody? [4, 19]: Yes
- Neutraliz by antibody? [4, 20]: No
- Neutralization of RSV mutant [4, 21]: retain its ability to neutralize
